Earlier results in patent US20240252671A1, “NEODEGRADER-ANTI-CD33 ANTIBODY CONJUGATES” (priority 2021, published 2024).

Columns and labels:
AML-193 = details: stated as known; cited from earlier work
Kasumi-6 = details: stated as known; cited from earlier work

For “Mylotarg: a CD33-targeting ADC clinically approved for the treatment of AML”, the “sensitivity of cell line to Mylotarg” value (AML-193) is given as “insensitive” and the “sensitivity of cell line to Mylotarg” value (Kasumi-6) is given as “insensitive”.
